Laboratory results reported in patent publication US12532889B2, “Herbicidal compositions comprising glufosinate” (BASF SE, priority 2023, dated 2026).
Where “and” joins values, the source holds several entries; their conditions need not be identical. Equal entries are not always repeated.

Key:
Test in all cases: Post-emergence application in field trials (Example A)
Format in all cases: in vivo
ELEIN (Eleusine indica) = details: A-1 25, B-6 252 g ai/ha, water 400 l/ha
[1] = tested on: DIGSA (Digitaria sanguinalis); details: for % Herbicidal activity: A-1 12.5 g ai/ha, growth stage 22
Method in brief: (§1)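 Colby-expected additive activity (E) served as reference for mixture responses in post-emergence field trials on natural or seeded weeds. Activity was visually scored 0–100% against untreated controls at indicated DAT.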

[2] = tested on: HORVW (Hordeum vulgare (winter barley))
Method in brief: as §1

[3] = tested on: LOLMU (Lolium multiflorum)
Method in brief: as §1

AVEFA (Avena fatua) = details: Table 3.1; AVEFA growth stage 22-24, height 18-29 cm; A-1 12.5, B-2 500 g ai/ha; 28 DAT; water 100 l/ha
Method in brief: as §1

[4] = tested on: POLCO (Polygonum convolvulus); details: Table 3.2, A-1 12.5, B-2 500 g ai/ha, 14 DAT, water 100 l/ha
Method in brief: as §1

[5] = tested on: ECHCG (Echinocloa crus-galli)
Method in brief: as §1

ZEAMX (Zea mays) = details: 7 DAT; A-1 12.5 g ai/ha; growth stage 15-16; height 50-60 cm
Method in brief: as §1

[6] = 7 DAT, A-1 12.5 g ai/ha, growth stage 23-29, height 20-25 cm
[7] = 7 DAT, A-1 18 g ai/ha, growth stage 23-29, height 20-25 cm
[8] = 21 DAT, A-1 12.5 g ai/ha, growth stage 23-29, height 20-25 cm
[9] = 21 DAT, A-1 18 g ai/ha, growth stage 23-29, height 20-25 cm
[10] = 21 DAT, A-1 12.5 g ai/ha, growth stage 23-30, height 15-20 cm
[11] = 21 DAT, A-1 18 g ai/ha, growth stage 23-30, height 15-20 cm

With CCOC(=O)COc1ccccc1Oc1nc(-n2c(=O)cc(C(F)(F)F)n(C)c2=O)c(F)cc1Cl [A-1, ethyl 2-[2-[[3-chloro-5-fluoro-6-[3-methyl-2,6-dioxo-4-(trifluoromethyl)pyrimidin-1-yl]-2-pyridyl]oxy]phenoxy]acetate] the “% herbicidal activity” value (ELEIN (Eleusine indica); Table 5.1, ELEIN height 5-20 cm, 21 DAT) was 57%, the “% herbicidal activity” value (ELEIN (Eleusine indica); Table 5.6, ELEIN growth stage 14-15, height 9-14 cm, 28 DAT) was 91% and the “% Herbicidal activity” value ([1]; 7 DAT, height 10-15 cm) was 75%. The “% Herbicidal activity” value ([1]; 21 DAT, height 10-15 cm) was 70%, the “% herbicidal activity” value ([1]; 21 DAT, A-1 18 g ai/ha, growth stage 21-22, height 10-15 cm) was 35% and the “% Herbicidal activity” value ([1]; 41 DAT, height 10-15 cm) was 55%. The “% Herbicidal activity” value ([1]; 42 DAT, height 10-15 cm) was 55%, the “% herbicidal activity” value ([1]; Table 4.1, DIGSA height 2-8 cm, A-1 12.5, B-2 655 g ai/ha, 21 DAT, water 140 l/ha) was 27% and the “% herbicidal activity” value ([1]; Table 4.1, DIGSA height 2-8 cm, A-1 25, B-2 655 g ai/ha, 21 DAT, water 140 l/ha) was 28%. The “% herbicidal activity” value ([1]; Table 4.1, DIGSA height 2-8 cm, A-1 50, B-2 655 g ai/ha, 21 DAT, water 140 l/ha) was 55%, the “% herbicidal activity” value ([1]; Table 6.1, DIGSA growth stage 21-22, height 10-15 cm, A-1 18, B-6 252 g ai/ha, 7 DAT, 200 l/ha water) was 40% and the “% Herbicidal activity” value [2, 6] was 60%. The “% herbicidal activity” value [2, 6] was 60%, the “% Herbicidal activity” value [2, 7] was 70% and the “% herbicidal activity” value [2, 7] was 75%. For the same compound, the “% Herbicidal activity” value [2, 8] was 90% and 60%, the “% herbicidal activity” value [2, 8] was 70% and 60% and the “% Herbicidal activity” value [2, 9] was 70%. For the same compound, the “% herbicidal activity” value [2, 9] was 70% and 75%, the “% herbicidal activity” value ([2]; Table 6.1, HORVW growth stage 23-29, height 20-25 cm, A-1 12.5, B-6 150 g ai/ha, 7 DAT, 200 l/ha water) was 60% and the “% herbicidal activity” value ([2]; Table 6.1, HORVW growth stage 23-29, height 20-25 cm, A-1 12.5, B-6 252 g ai/ha, 7 DAT, 200 l/ha water) was 60%. For the same compound, the “% herbicidal activity” value ([2]; Table 6.1, HORVW growth stage 23-29, height 20-25 cm, A-1 18, B-6 150 g ai/ha, 7 DAT, 200 l/ha water) was 70%, the “% herbicidal activity” value ([2]; Table 6.1, HORVW growth stage 23-29, height 20-25 cm, A-1 18, B-6 252 g ai/ha, 7 DAT, 200 l/ha water) was 70% and the “% herbicidal activity” value ([3]; 7 DAT, A-1 12.5 g ai/ha, growth stage 22-25, height 20-25 cm) was 70%. The “% herbicidal activity” value ([3]; 21 DAT, A-1 12.5 g ai/ha, growth stage 22-25, height 20-25 cm) was 70%, the “% herbicidal activity” value ([3]; Table 1.28, LOLMU growth stage 11-23, height 5-10 cm, A-1 25, B-2 400 g ai/ha, 28 DAT, water 200 l/ha) was 43% and the “% herbicidal activity” value ([3]; Table 6.1, LOLMU growth stage 22-25, height 20-25 cm, A-1 12.5, B-6 252 g ai/ha, 7 DAT, 200 l/ha water) was 40%. The “% herbicidal activity” value ([3]; Table 6.1, LOLMU growth stage 22-25, height 20-25 cm, A-1 18, B-6 252 g ai/ha, 7 DAT, 200 l/ha water) was 50%, the “% herbicidal activity” value (AVEFA (Avena fatua)) was 70% and the “% herbicidal activity” value [4] was 90%. For the same compound, the “% herbicidal activity” value ([5]; 7 DAT, A-1 12.5 g ai/ha, growth stage 23-30, height 15-20 cm) was 20%, the “% herbicidal activity” value ([5]; 7 DAT, A-1 18 g ai/ha, growth stage 23-30, height 15-20 cm) was 40% and the “% Herbicidal activity” value [5, 10] was 30% and 20%. For the same compound, the “% herbicidal activity” value [5, 10] was 20% and 30%, the “% Herbicidal activity” value [5, 11] was 30% and the “% herbicidal activity” value [5, 11] was 30% and 40%. The “% Herbicidal activity” value ([5]; 28 DAT, A-1 12.5 g ai/ha, growth stage 23-30, height 15-20 cm) was 20%, the “% Herbicidal activity” value ([5]; 28 DAT, A-1 18 g ai/ha, growth stage 23-30, height 15-20 cm) was 30% and the “% herbicidal activity” value ([5]; Table 6.1, ECHCG growth stage 23-30, height 15-20 cm, A-1 12.5, B-6 150 g ai/ha, 7 DAT, 200 l/ha water) was 20%. For the same compound, the “% herbicidal activity” value ([5]; Table 6.1, ECHCG growth stage 23-30, height 15-20 cm, A-1 12.5, B-6 252 g ai/ha, 7 DAT, 200 l/ha water) was 20%, the “% herbicidal activity” value ([5]; Table 6.1, ECHCG growth stage 23-30, height 15-20 cm, A-1 18, B-6 150 g ai/ha, 7 DAT, 200 l/ha water) was 30% and the “% herbicidal activity” value ([5]; Table 6.1, ECHCG growth stage 23-30, height 15-20 cm, A-1 18, B-6 252 g ai/ha, 7 DAT, 200 l/ha water) was 40%. For the same compound, the “% herbicidal activity” value (ZEAMX (Zea mays)) was 80%.
